Source: the METLIN SMRT retention time set (Domingo-Almenara et al. 2019)

Assay: gradient 5% acetonitrile 3 min, to 50% in 2 min, to 85% in 15 min, held 3 min, 100 µL/min
Details: column: Zorbax Extend-C18 2.1 x 50 mm; eluents: water / acetonitrile, 0.1% formic acid
Summary of the method: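 Pure standards were run in mixtures of ~100 molecules by HPLC coupled to a quadrupole time-of-flight mass spectrometer. The column was a Zorbax Extend-C18 (2.1 × 50 mm, 1.8 μm) at 100 μL/min, with water and acetonitrile each containing 0.1% formic acid, in positive and negative ionization mode. Dead and dwell volumes were 40 μL and 900 μL. Retention time was taken from computationally picked adduct peaks, each manually inspected, with data collected over 3 months.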

Compound | RP-LC retention time [s]
Cc1cccc(NC(=O)Nc2nccn(-c3cccc(Cl)c3C)c2=O)c1 | 1110
Cc1ccc(NS(=O)(=O)c2c(C)sc(C)c2-c2cc(C(F)(F)F)on2)c(C)c1 | 1240
O=c1n(Cc2ccc3c(c2)OCO3)nc2c(S(=O)(=O)N3CCCCCC3)cccn12 | 921
C=Cc1ccc(Cn2nc3c(S(=O)(=O)N4CCCCCC4)cccn3c2=O)cc1 | 999
COCCn1cc(CCNC(=O)Nc2ccccc2Cl)c2cccnc21 | 752
CCCCN(C)CCCNC(=O)C1CCN(S(=O)(=O)CCC)CC1 | 968
O=C(Nc1ccccc1)N1[C@H]2CC[C@@H]1c1cncnc1C2 | 651
O=C(NCc1nc(-c2ccccc2)no1)c1cc(C2CC2)on1 | 822
Cc1cc(C)n(-c2ccc(N3CCC(C(=O)NCc4ccc5c(c4)OCO5)CC3)nn2)n1 | 642
COc1ccccc1-c1nnc(-c2ccc(Cl)c(S(=O)(=O)N(C)C)c2)o1 | 913
Cc1cccc(N(C)C(=O)C(C)n2cnc3nc4c(cc3c2=O)CCCC4)c1 (stereo unspecified) | 762
O=C(c1ccc(Cn2c(=O)c3cccn3c3cccnc32)o1)N1CCN(c2ccccn2)CC1 | 615
CCCN1C(=O)c2cc(S(=O)(=O)Nc3ccc(F)cc3F)ccc2Oc2cccnc21 | 1050
COc1ccccc1CNC(=O)CN1CCN(Cc2ccccc2F)C1=O | 715
Cc1ccc(N2CCC(C(=O)Nc3ccc4c(c3)Cc3ccccc3-4)CC2)nn1 | 608
CCOC(=O)c1c(C)[nH]c(CCC(=O)NCCc2c(C)noc2C)c1C | 729
COCCn1cc2c3c(cccc31)CN(C(=O)c1ccc(Cl)s1)CC2 | 1060
COCCC(=O)NC1CCN(c2ccc(C)c(C)c2)C1=O (stereo unspecified) | 688

Compound | RP-LC retention time [s]
COc1ccc(NC(=O)C2CCCN(c3nc4c(s3)c(C)nn4-c3ccccc3)C2)cc1Cl (stereo unspecified) | 1190
CC(C)n1nc(CO)c2c1CCN(C(=O)C1COc3ccccc3O1)C2 (stereo unspecified) | 667
Cc1[nH]c(=O)nc(N/N=C/c2ccc(Cl)cc2)c1C(=O)Nc1ccc(Cl)cc1 | 1020
Cc1ccc2c(=O)c3c([nH]c2c1C)CCN(CC(=O)Nc1ccc(F)cc1)C3 | 626
CCOC(=O)c1nn(-c2ccc(F)cc2)c(=O)cc1NCC1CCCO1 (stereo unspecified) | 766
Cc1ccccc1-c1noc(-c2cccn(CC(=O)N3CCCC3)c2=O)n1 | 750
CCOc1cn(-c2ccc(F)cc2)nc1C(=O)NCc1cccs1 | 873
CCn1cc(CNC(=O)c2cc(-c3ccc4c(c3)OCO4)nc3ccccc23)c(C)n1 | 818
CCc1nc(-c2cc(S(=O)(=O)NCC(=O)NC3CCCC3)c(C)s2)no1 | 843
CCOc1ccc(-n2ccn3cc(-c4cccc(OC)c4)nc3c2=O)cc1 | 847
CCc1ccc(S(=O)(=O)c2cnc(N3CCCC(C)C3)nc2N)cc1 (stereo unspecified) | 1150
COc1ccc(-c2noc(CN3C(=O)COc4cc(C(C)(C)C)ccc43)n2)cc1OC | 1110
CC(C)C(=O)N1CCN(c2ccc(=O)n(-c3ccc(C(C)C)cc3)n2)CC1 | 834
CNC(=O)Nc1ccc(C2(C(=O)NCc3ccc(F)cc3Cl)CCC2)cc1 | 784
Cc1ccc(-c2nc(-c3ccc4c(c3)ncn4CCN3CCOCC3)no2)cc1F | 689
COc1ccc(-c2noc(Cn3cnc4c(oc5ccccc54)c3=O)n2)cc1OC | 846
Cc1ccc(N2CCN(C(=O)c3ccc4ncnc(N5CCCC5)c4c3)CC2)cc1 | 668
Cc1ccc(Nc2c(-c3cccc(Br)c3)nc3cc(C)ccn23)cc1 | 857
